Earlier results, collected in PMC7774954, “Interactomic affinity profiling by holdup assay: Acetylation and distal residues impact the PDZome-binding specificity of PTEN phosphatase” (PLoS ONE, 2020).
Where no end group is shown, it is not given here. The star is where a group is joined. Biotin = O=C1N[C@H]2[C@H](CS[C@H]2CCCCC(=O)*)N1; TTDS = NCCCOCCOCCOCCCNC(=O)CCC(=O)*

How the values were obtained:
SNX27 PDZ 1 = conditions: ITC, read-out: KD (affinity provided in the literature); cited from earlier work
Excerpt: (§1) Table 1 PDZ domains interactors for PTEN according to literature and the present study. | column: KD ^d

MAST2 PDZ 1 = conditions: ITC, read-out: KD (affinity provided in the literature); cited from earlier work
Excerpt: as §1

PARD3 PDZ 3 = conditions: FP, read-out: KD (affinity provided in the literature); cited from earlier work
Excerpt: as §1

PTPN13-4 domain = conditions: cited from earlier work
Excerpt: It has been shown that the binding of the tumor suppressor PTEN, through its PBM, to PDZ dom ...

For “PTEN: PTEN constructs of published studies; phosphatase and tensin homolog deleted on chromosome 10 ({Biotin-TTDS}-DEDQHTQITKV)”, the Kd (SNX27 PDZ 1) is given as 38 µM, the Kd (MAST2 PDZ 1) is given as 2 µM and the Kd (PARD3 PDZ 3) is given as 19 µM. The “interaction with PTPN13-4 (in words)” value (PTPN13-4 domain) was “absence of interaction”.
